Measurements from patent publication US6780871B2, “Methods and compositions for treating addiction disorders” (Albany Medical College, priority 2001, dated 2004).

Experiments:
Format in all cases: in vivo, rat
[1] = tested on: morphine self-administration; test: intravenous morphine self-administration; conditions: Example 6, FIG. 8: mecamylamine 1 mg/kg i.p., 18-methoxycoronaridine 1 mg/kg i.p., dextromethorphan 5 mg/kg s.c., bupropion 5 mg/kg i.p.; 5-8 rats
Procedure: Dextromethorphan hydrobromide (5 mg/kg; Sigma/RBI, St. Louis, Mo.) was dissolved in saline and injected subcutaneously 20 minutes before testing. Mecamylamine hydrochloride (1 mg/kg; Sigma/RBI, St. Louis, Mo.) was dissolved in physiological saline and injected intraperitoneally 30 minutes before testing. All rats received two injections. For rats that received a single drug, half of them also received the appropriate saline/vehicle injection corresponding to each of the other two drugs.
Naive female Long-Evans derived rats (250 g; Charles River, N.Y.) were maintained on a normal 12 h light cycle (lights on at 7:00 a.m., lights off at 7:00 p.m.). For all experiments the “Principles of Laboratory Animal Care” (NIH publication No. 85-23, revised 1985, which is hereby incorporated by reference) were followed.
The intravenous self-administration procedure described in Glick et al., “18-MC Reduces Methamphetamine and Nicotine Self-administration in Rats,” NeuroReport 11:2013-2015 (2000) (“Glick I”), which is hereby incorporated by reference, was employed. Briefly, responses on either of two levers (mounted 15 cm apart on the front wall of each operant test cage) were recorded on an IBM compatible computer with a Med Associates, Inc. interface. The intravenous self-administration system consisted of polyethylene-silicone cannulas constructed according to the design of Weeks, “Long-term Intravenous Infusion,” pp. 155-168 in Myers (ed.), Methods in Psychobiology, Vol. 2, New York: Academic Press (1972) (“Weeks”), which is hereby incorporated by reference; Instech harnesses and swivels; and Harvard Apparatus infusion pumps (#55-2222). Shaping of the bar-press response was initially accomplished by training rats to bar-press for water. Cannulas were then implanted in the external jugular vein according to procedures described in Weeks, which is hereby incorporated by reference. Self-administration testing began with a 16-h nocturnal session followed by daily 1-h sessions, 5 days (Monday-Friday) a week. A lever-press response produced a 10 μl infusion of drug solution (0.01 mg of morphine sulfate) in about 0.2 s or a 50 μl infusion of drug solution (0.025 mg of methamphetamine sulfate) in about 1 s. Since all rats generally weighed 250±20 g, each response delivered approximately 0.04 mg/kg of morphine or 0.1 mg/kg of methamphetamine. Experiments to assess the effects of experimental treatments were begun when baseline self-administration rates stabilized (≦10% variation from one day to the next across 5 days), usually after 2 weeks of testing.
Each data point represents the mean (±S.E.M.) percent of baseline of 6-8 rats. Significant differences between baseline and treatment are indicated by an asterisk (paired t-test, P<0.01-0.001).
Each data point represents the mean (±S.E.M.) percent of baseline of 5-8 rats. Significant differences between baseline and treatment are indicated by an asterisk (paired t-test), P<0.05-0.01).

[2] = tested on: methamphetamine self-administration; test: intravenous methamphetamine self-administration; conditions: Example 6, FIG. 9: mecamylamine 1 mg/kg i.p., 18-methoxycoronaridine 5 mg/kg i.p., dextromethorphan 10 mg/kg s.c., bupropion 10 mg/kg i.p.; 5-9 rats
[3] = tested on: nicotine self-administration; test: nicotine self-administration; conditions: Example 7, FIGS. 11-12: mecamylamine 0.1 mg/kg i.p., 18-methoxycoronaridine 0.5 mg/kg i.p., dextromethorphan 0.5 mg/kg s.c., bupropion 5 mg/kg i.p.; 5-8 rats

CC(NC(C)(C)C)C(=O)c1cccc(Cl)c1 (stereo not drawn) [bupropion, m-chloro-α-tert-butylaminopropiophenone]
effect on morphine self-administration (percent of baseline) [1]: none of the drugs administered alone, significantly decreased
effect on methamphetamine self-administration (percent of baseline) [2]: none of the drugs administered alone, significantly decreased
effect on nicotine self-administration (percent of baseline) [3]: none of the drugs administered alone, significantly decreased
